Test results taken from patent publication US12473304B2, “Heterocyclic PAD4 inhibitors” (BRISTOL-MYERS SQUIBB COMPANY, priority 2020, dated 2025).
pIC50: −log10 of the molar value.

Each molecule was assayed against human PAD4 (hPAD4) (Homo sapiens (Human), UniProt Q9UM07) (assay: RFMS Human PAD4 Functional Assay 1). Conditions: RFMS assay 1; 5 nM hPAD4, 250 μM BAEE substrate, 50 μM calcium, 37° C.
Assay type: biochemical
Summary of the method: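 Recombinant hPAD4 (5 nM) was preincubated with compound (top 50 μM, 0.5% DMSO) for 30 min at 37 °C, then reacted with 250 μM BAEE for 90 min at 37 °C in pH 7.5 HEPES buffer with 50 μM calcium and 5 μM TPEN. Product was derivatized with phenyl glyoxal and quantified by RapidFire MS.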

Chain of human PAD4 (hPAD4) (Q9UM07 whole entry): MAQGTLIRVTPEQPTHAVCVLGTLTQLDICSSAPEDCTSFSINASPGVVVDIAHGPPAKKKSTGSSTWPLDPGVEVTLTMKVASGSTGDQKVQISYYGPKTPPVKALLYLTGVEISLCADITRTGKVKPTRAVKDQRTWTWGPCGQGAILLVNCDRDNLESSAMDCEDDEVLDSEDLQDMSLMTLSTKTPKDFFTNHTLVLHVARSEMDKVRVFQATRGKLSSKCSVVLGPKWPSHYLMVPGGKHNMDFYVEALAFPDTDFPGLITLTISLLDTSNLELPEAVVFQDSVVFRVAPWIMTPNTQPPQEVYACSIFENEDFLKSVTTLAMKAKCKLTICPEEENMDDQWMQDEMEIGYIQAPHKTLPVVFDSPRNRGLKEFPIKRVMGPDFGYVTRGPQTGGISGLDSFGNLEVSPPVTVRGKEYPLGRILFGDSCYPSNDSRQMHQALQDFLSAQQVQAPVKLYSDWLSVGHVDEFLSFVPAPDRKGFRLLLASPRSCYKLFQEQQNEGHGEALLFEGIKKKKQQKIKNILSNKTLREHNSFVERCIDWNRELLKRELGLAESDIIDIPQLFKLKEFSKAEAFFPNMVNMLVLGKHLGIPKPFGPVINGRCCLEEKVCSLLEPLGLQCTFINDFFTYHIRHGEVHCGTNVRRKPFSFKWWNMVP

SMILES | pIC50
COc1cc(C(=O)N2CC3CCC2[C@@H]3N)cn2nc(-c3cc4cccnc4n3CC3CC3)c(C)c12 (stereo partly drawn) [Example 1, ((7R)-7-Amino-2-azabicyclo[2.2.1]heptan-2-yl)(2-(1-(cyclopropylmethyl)-1H-pyrrolo[2,3-b]pyridin-2-yl)-4-methoxy-3-methylpyrazolo[1,5-a]pyridin-6-yl)methanone] | 6.55
COc1cc(C(=O)N2CC3CCC2[C@@H]3N)cn2nc(-c3cc4ccc(-c5ccc6c(c5)C(=O)NC6)nc4n3CC3CC3)c(C)c12 (stereo partly drawn) [Example 3, 6-(2-(6-((7R)-7-Amino-2-azabicyclo[2.2.1]heptane-2-carbonyl)-4-methoxy-3-methylpyrazolo[1,5-a]pyridin-2-yl)-1-(cyclopropylmethyl)-1H-pyrrolo[2,3-b]pyridin-6-yl)isoindolin-1-one] | 7.22
COc1cc(C(=O)N2CC3CCC2[C@@H]3N)cn2nc(-c3cc4ccc(C)nc4n3CC3CC3)c(C)c12 (stereo partly drawn) [Example 4, ((7R)-7-Amino-2-azabicyclo[2.2.1]heptan-2-yl)(2-(1-(cyclopropylmethyl)-6-methyl-1H-pyrrolo[2,3-b]pyridin-2-yl)-4-methoxy-3-methylpyrazolo[1,5-a]pyridin-6-yl)methanone] | 7.17
COc1cc(C(=O)N2CC3CCC2[C@@H]3N)cn2nc(-c3cc4ccc(-c5ccc6c(c5)CNC6=O)nc4n3CC3CC3)c(C)c12 (stereo partly drawn) [Example 5, 5-(2-(6-((7R)-7-Amino-2-azabicyclo[2.2.1]-heptane-2-carbonyl)-4-methoxy-3-methylpyrazolo[1,5-a]pyridin-2-yl)-1-(cyclopropylmethyl)-1H-pyrrolo[2,3-b]pyridin-6-yl)isoindolin-1-one] | 7.57
COc1cc(C(=O)N2CC3CCC2[C@@H]3N)cn2nc(-c3cc4ccc(C5CC5)nc4n3CC3CC3)c(C)c12 (stereo partly drawn) [Example 6, ((7R)-7-Amino-2-azabicyclo[2.2.1]heptan-2-yl)(2-(6-cyclopropyl-1-(cyclopropylmethyl)-1H-pyrrolo[2,3-b]pyridin-2-yl)-4-methoxy-3-methylpyrazolo[1,5-a]pyridin-6-yl)methanone] | 7.49
COc1cc(C(=O)N2CC3CCC2[C@@H]3N)cn2nc(-c3cc4ccc(-c5cccc(O)c5F)nc4n3CC3CC3)c(C)c12 (stereo partly drawn) [Example 9, ((7R)-7-Amino-2-azabicyclo[2.2.1]heptan-2-yl)(2-(1-(cyclopropylmethyl)-6-(2-fluoro-3-hydroxyphenyl)-1H-pyrrolo[2,3-b]pyridin-2-yl)-4-methoxy-3-methylpyrazolo[1,5-a]pyridin-6-yl)methanone] | 6.92
COc1cc(C(=O)N2CC3CCC2[C@@H]3N)cn2nc(-c3cc4ccc(-c5ccc(O)c(F)c5)nc4n3CC3CC3)c(C)c12 (stereo partly drawn) [Example 10, ((7R)-7-Amino-2-azabicyclo[2.2.1]heptan-2-yl)(2-(1-(cyclopropylmethyl)-6-(3-fluoro-4-hydroxyphenyl)-1H-pyrrolo[2,3-b]pyridin-2-yl)-4-methoxy-3-methylpyrazolo[1,5-a]pyridin-6-yl)methanone] | 6.80
COc1cc(C(=O)N2CC3CCC2[C@@H]3N)cn2nc(-c3cc4ccc(N5CC(OC)C5)nc4n3CC3CC3)c(C)c12 (stereo partly drawn) [Example 13, ((7R)-7-Amino-2-azabicyclo[2.2.1]heptan-2-yl)(2-(1-(cyclopropylmethyl)-6-(3-methoxyazetidin-1-yl)-1H-pyrrolo[2,3-b]pyridin-2-yl)-4-methoxy-3-methylpyrazolo[1,5-a]pyridin-6-yl)methanone] | 6.79
COc1cc(C(=O)N2C[C@H](N)C[C@@H](F)C2)cn2nc(-c3cc4cccnc4n3CC3CC3)c(C)c12 [Example 14, ((3R,5R)-3-Amino-5-fluoropiperidin-1-yl)(2-(1-(cyclopropylmethyl)-1H-pyrrolo[2,3-b]pyridin-2-yl)-4-methoxy-3-methylpyrazolo[1,5-a]pyridin-6-yl)methanone] | 6.04

Further molecules by rising pIC50, results first:

pIC50 | SMILES
5.63 | COc1cc(C(=O)N2CC3CCC2[C@@H]3N)cn2nc(-c3cc4ccc(-c5ccc(OC(F)F)c(F)c5)nc4n3CC3CC3)c(C)c12 (stereo partly drawn) [Example 12, ((7R)-7-Amino-2-azabicyclo[2.2.1]heptan-2-yl)(2-(1-(cyclopropylmethyl)-6-(4-(difluoromethoxy)-3-fluorophenyl)-1H-pyrrolo[2,3-b]pyridin-2-yl)-4-methoxy-3-methylpyrazolo[1,5-a]pyridin-6-yl)methanone]
5.86 | COc1cc(C(=O)N2CC3CCC2[C@@H]3N)cn2nc(-c3cc4ccc(-c5ccc(OC(F)F)cc5)nc4n3CC3CC3)c(C)c12 (stereo partly drawn) [Example 11, ((7R)-7-Amino-2-azabicyclo[2.2.1]heptan-2-yl)(2-(1-(cyclopropylmethyl)-6-(4-(difluoromethoxy)phenyl)-1H-pyrrolo[2,3-b]pyridin-2-yl)-4-methoxy-3-methylpyrazolo[1,5-a]pyridin-6-yl)methanone]
6.39 | COc1cc(C(=O)N2CC3CCC2[C@@H]3N)cn2nc(-c3cc4ccc(-c5cnn(C(C)C)c5)nc4n3CC3CC3)c(C)c12 (stereo partly drawn) [Example 7, ((7R)-7-Amino-2-azabicyclo[2.2.1]heptan-2-yl)(2-(1-(cyclopropylmethyl)-6-(1-isopropyl-1H-pyrazol-4-yl)-1H-pyrrolo[2,3-b]pyridin-2-yl)-4-methoxy-3-methylpyrazolo[1,5-a]pyridin-6-yl)methanone]
6.42 | COc1cc(C(=O)N2CC3CCC2[C@@H]3N)cn2nc(-c3cc4ccc(Cl)nc4n3CC3CC3)c(C)c12 (stereo partly drawn) [Example 2, ((7R)-7-Amino-2-azabicyclo[2.2.1]heptan-2-yl)(2-(6-chloro-1-(cyclopropylmethyl)-1H-pyrrolo[2,3-b]pyridin-2-yl)-4-methoxy-3-methylpyrazolo[1,5-a]pyridin-6-yl)methanone]
7.00 | COc1cc(C(=O)N2CCC[C@@H](N)C2)cn2nc(-c3cc4ccnc(OCC5CNC(=O)C5)c4n3CC3CC3)c(C)c12 (single isomer, unassigned; isomer 2) [Example 603]
7.15 | Cc1c(-c2cc3ccnc(OCC4CNC(=O)C4)c3n2CC2CC2)nn2cc(C(=O)N3C[C@H](N)C[C@@H](F)C3)ccc12 (single isomer, unassigned; isomer 2) [Example 615]
7.30 | COc1cc(C(=O)N2CC3CCC2[C@@H]3N)cn2nc(-c3cc4ccnc(OCC5CNC(=O)C5)c4n3CC3CC3)c(C)c12 (single isomer, unassigned; isomer 2) [Example 606]
7.30 | COc1cc(C(=O)N2CC3CCC2[C@H]3N)cn2nc(-c3cc4ccnc(OC[C@H]5CCC(=O)N5)c4n3CC3CC3)c(C)c12 (stereo in doubt) [Example 607, (5R)-5-(((2-(6-((7S)-7-Amino-2-azabicyclo[2.2.1]heptane-2-carbonyl)-4-methoxy-3-methylpyrazolo[1,5-a]pyridin-2-yl)-1-(cyclopropylmethyl)-1H-pyrrolo[2,3-c]pyridin-7-yl)oxy)methyl)pyrrolidin-2-one]
7.40 | Cc1c(-c2cc3ccnc(OCC4CNC(=O)C4)c3n2CC2CC2)nn2cc(C(=O)N3CCC[C@@H](N)C3)ccc12 (single isomer, unassigned; isomer 2) [Example 619]
7.43 | COc1cc(C(=O)N2CC3CCC2[C@@H]3N)cn2nc(-c3cc4ccc(-c5ccn6c(C)nnc6c5)nc4n3CC3CC3)c(C)c12 (stereo partly drawn) [Example 8, ((7R)-7-Amino-2-azabicyclo[2.2.1]heptan-2-yl)(2-(1-(cyclopropylmethyl)-6-(3-methyl-[1,2,4]triazolo[4,3-a]pyridin-7-yl)-1H-pyrrolo[2,3-b]pyridin-2-yl)-4-methoxy-3-methylpyrazolo[1,5-a]pyridin-6-yl)methanone]
